These results are taken from PubChem BioAssay (NCI).

Common to all, as to assay: growth of human tumour cells (NCI), 48 h
In test [1] the test system is 786-0 renal.
Test [2] concerns HCT-116 colon.
The test system of test [3] is IGROV1 ovarian.
Test [4] has as its system RXF 393 renal.
Test [5] deals with SK-MEL-28 melanoma.
Test [6] relates to UACC-257 melanoma.
Test [7] deals with XF 498 CNS.
The subject of test [8] is COLO 205 colon.
Test [9] relates to DMS 114 small cell lung.
The subject of test [10] is M19-MEL melanoma.

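All cell lines were grown in 96-well plates and treated with compound for 48 hours. The concentration for 50% growth inhibition is given as GI50. TGI is the concentration that stops growth completely.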

For `CCCCCCCCCCCCCCCc1nc(SCC(=O)O)n[nH]1`, the TGI was 42.1 µM in test [1]; > 100 µM in test [2]; > 100 µM in test [3]; > 100 µM in test [4]; > 100 µM in test [5]; > 100 µM in test [6]. Also, the TGI in [7] was > 100 µM.

Regarding `C[C@]12CC[C@H](O)CC1CCC[C@@H]2O` (stereo partly specified), the TGI in test [1], in test [8], in test [9], in test [2], in [3] and in test [4] was > 100 µM in each case. Besides, the TGI in [5], in test [6] and in [7] was > 100 µM each time.

On to `CC(=O)NC1C(OCc2ccccc2)OC(COC(=O)CCCCCCCCCCNC(=O)CCNc2ccc([N+](=O)[O-])c3[nH]c4ccc(O)cc4c(=O)c23)C(O)C1OC(C)C(=O)N[C@H](C(=O)N[C@H](CCC(=O)O)C(N)=O)C(C)C` (stereo partly specified), for which the TGI in test [1], in test [8], in test [9], in [2], in test [3] and in test [10] was > 100 µM each time. The TGI in test [4], in test [5] and in test [6] was > 100 µM throughout.

As to `O=C1OC(/C=C/c2ccccc2)C(=O)C1=O` (stereo unspecified), the TGI in [1], in test [8], in [3], in [10], in test [4] and in test [5] was > 100 µM in each case. Moreover, the TGI in test [6] and in test [7] was > 100 µM each time.

`O=C1C2Cc3ccccc3CN2C(=O)N1CCN1CCOCC1` (stereo unspecified): the TGI in test [1], in [8], in test [9], in test [3], in test [10] and in test [5] was > 100 µM throughout.

As to `COc1ccc2c(c1)[n+](=O)c(C(=O)C/C(=N\NC(=O)C[N+](C)(C)C)C(=O)Nc1cc(Cl)ccc1Cl)c(C)n2O`, the TGI in [1], in test [8], in test [2], in test [3], in [10] and in [4] was > 100 µM each time. Further, the TGI in test [5] and in [6] was > 100 µM throughout.

On to `NCCCSCC(=O)O`, for which the TGI in test [1], in test [8], in test [9], in test [2], in [3] and in [10] was > 100 µM throughout. Further, the TGI in test [4], in test [5] and in [6] was > 100 µM each time.

As to `OC1/C(=C/c2ccccc2)CNC/C1=C\c1ccccc1` (stereo unspecified), the TGI in [1], in [8], in test [9], in test [2], in test [3] and in [10] was > 100 µM throughout. The TGI in [4], in [5] and in test [6] was > 100 µM throughout.

As to `OC1OC2COC(c3ccccc3)OC2C(O)C1O` (stereo unspecified), the TGI in test [1], in [8], in [9], in test [2], in [3] and in test [10] was > 100 µM in each case. The TGI in test [6] and in test [7] was > 100 µM throughout.

Turning to `CCC1(O)CC(c2ccccc2)N(C)C(c2ccccc2)C1` (stereo unspecified), the TGI in test [1], in [8], in test [9], in [2], in test [3] and in [10] was > 100 µM in each case. Also, the TGI in [4], in [5] and in [6] was > 100 µM each time.

For the compound `O=C(c1ccccc1)C(c1ccccc1)C1(O)C(=O)Nc2ccc(Br)cc21` (stereo unspecified), the TGI is > 100 µM in [1]; > 100 µM in test [8]; 50.5 µM in test [9]; > 100 µM in test [2]; > 100 µM in test [3]; 30.6 µM in test [10]. In addition, the TGI is > 100 µM in test [4], > 100 µM in test [5] and 53.8 µM in [6].

Consider `O=P1(NCCCl)OCCC(OO)N1CCCl` (stereo unspecified), for which the TGI in test [1] was 99.7 µM; in test [8], > 57.3 µM; in [9], > 100 µM; in [2] it was 33.6 µM; in test [3], > 100 µM; in test [10], > 100 µM. Also, the TGI is 32.4 µM in [4], 39.4 µM in [5] and > 82.6 µM in [6].

For `Fc1cccc(C2SCc3nc4ccccc4n32)c1` (stereo unspecified), the TGI in test [1], in test [8], in [9], in test [2], in test [3] and in test [10] was > 100 µM each time. The TGI is > 10 µM in test [4], > 10 µM in test [5] and 69.1 µM in test [6].

For `Cc1cc2c(C=O)[nH]nc2c(C#N)c1C`, the TGI in test [1] was > 100 µM; in test [8], > 100 µM; in test [9], 99.3 µM; in test [2] it was > 100 µM; in test [3], > 100 µM; in test [10], > 100 µM. The TGI in test [5] and in test [6] was > 100 µM each time.

Take `NC1=C(O)/C(=N/NS(=O)(=O)c2ccccc2)C(c2cccc(Cl)c2)O1` (stereo unspecified): the TGI in test [1] was 68.5 µM; in [8], 30 µM; in test [9], 42.1 µM; in [2], 53.6 µM; in [3], > 100 µM; in test [10] it was > 57.2 µM. The figures for the TGI in [4], in test [5] and in test [6] were 29.6 µM, 46.2 µM and > 100 µM, respectively.

On to `Clc1ccc2c(NCCCNCc3ccc4c(c3)OCO4)ccnc2c1`, for which the GI50 in test [1] was 2.88 µM; in test [8] it was 1.73 µM; in [2], 2.03 µM; in [3], 5.52 µM; in test [4] it was 1.87 µM; in [5], 1.86 µM. Also, the GI50 in [6] is 1.91 µM. Moreover, the TGI turned out to be 12 µM in test [1]; 3.48 µM in [8]; 8.82 µM in [2]; 20.9 µM in test [3]; 5.07 µM in test [4]; 3.57 µM in test [5]. For the same compound, the TGI in test [6] turned out to be 3.44 µM.

With `NC(CSC(c1ccccc1)(c1ccccc1)c1ccc(Br)cc1)C(=O)O` (stereo unspecified), the GI50 in test [1] was 0.119 µM; in test [8] it was 0.241 µM; in test [2], 0.0469 µM; in test [3] it was 0.293 µM; in test [4], 0.103 µM; in test [5] it was 0.366 µM. Further, the GI50 in test [6] is 7.44 µM. Further, the TGI in [1] is 1.58 µM; in [8] it was 15.2 µM; in test [2] it was 5.71 µM; in [3], 40.8 µM; in [4], > 35.6 µM; in [5], 31.7 µM. For the same compound, in [6], the TGI is > 72.8 µM.

As to `O=C(Nc1ccc(-n2cc(-c3ccncc3)c(-c3ccc(Cl)c(O)c3)n2)cc1)c1ccc(Cl)c(C(F)(F)F)c1`, the GI50 in [1] is 0.308 µM; in [8], 1.94 µM; in test [2], 0.918 µM; in [3] it was 3.11 µM; in test [4], 0.213 µM; in [5] it was 1.18 µM. For the same compound, in test [6], the GI50 was 3.27 µM. The TGI in test [1] was 0.919 µM; in test [8], 4.64 µM; in test [2], 2.45 µM; in test [3], > 28.4 µM; in [4], 0.606 µM; in [5] it was 3.6 µM. The TGI in test [6] stood at 39.9 µM.

Consider `CCOc1ccc(-n2cc(-c3ccc(N(C)C)cc3)[n+]3c2CCCCC3)cc1`, for which the GI50 in test [1] is 2.69 µM; in test [8], 0.197 µM; in test [2], 0.267 µM; in test [3] it was 0.923 µM; in test [4], 4.51 µM; in test [5], 0.841 µM. For the same compound, the GI50 in test [6] is 0.12 µM. In addition, the TGI is > 100 µM in test [1]; 1.73 µM in [8]; > 100 µM in test [2]; > 100 µM in [3]; > 90.3 µM in test [4]; > 81.9 µM in [5]. For the same compound, in test [6], the TGI was found to be 2.44 µM.

Take `COc1ccc(-n2cc(-c3ccc(F)cc3)[nH]c2=O)cc1OC`: the GI50 in [1], in test [8], in test [2], in test [3], in test [4] and in [5] was > 100 µM in each case. Further, in test [6], the GI50 was > 100 µM. For the same compound, the TGI in test [1], in [8], in test [2], in [3], in test [4] and in [5] was > 100 µM throughout. The TGI in test [6] is > 100 µM.
